Experimental data from ChEMBL document CHEMBL1201862, “PubChem BioAssay data set” (2004).
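Values below derive from 48-hour exposures of cells grown in 96-well plates, with endpoints linearly interpolated between the two concentrations bracketing the appropriate inhibition level. At the GI50, growth is halved.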 Calls of active or inactive are those of the source. Rule as the data show it: active = GI50 up to about 1.1 µM and inactive = higher. Where a SMILES comes first, the peptide text is derived from it. [ ]: non-standard residue; d: D form. The star is where a group is joined. ξ: configuration not given here. ξF = NC(Cc1ccccc1)C(=O)O; Cbz = O=C(OCc1ccccc1)*; Aib = CC(C)(N)C(=O)O

What was measured:
Test in all cases: NCI anticancer screen, dose series, 48 h
HCC 2998 = tested on: HCC 2998
HCT-116 = tested on: HCT-116
HL-60 = tested on: HL-60
HOP-62 = tested on: HOP-62
IGROV-1 = tested on: IGROV-1
K562 = tested on: K562
KM12 = tested on: KM12
LOX IMVI = tested on: LOX IMVI
MCF7 = tested on: MCF7
OVCAR-8 = tested on: OVCAR-8
SF-268 = tested on: SF-268
SK-MEL-28 = tested on: SK-MEL-28
SK-MEL-2 = tested on: SK-MEL-2
SK-MEL-5 = tested on: SK-MEL-5
SN12C = tested on: SN12C
SNB-19 = tested on: SNB-19
U-251 = tested on: U-251
UO-31 = tested on: UO-31
M14 = tested on: M14
TK-10 = tested on: TK-10

Measured: GI50

CCC(C(C)N1CC(=O)NC(=O)C1)N1CC(=O)NC(=O)C1 (centres undefined)
inactive: HCC 2998 > 61.4 µM | HCT-116 23.4 µM | HL-60 2.06 µM | HOP-62 7.01 µM | IGROV-1 > 100 µM | K562 9.77 µM | KM12 > 100 µM | LOX IMVI > 100 µM | MCF7 4.08 µM | OVCAR-8 > 100 µM | SF-268 > 87.9 µM | SK-MEL-28 > 100 µM | SK-MEL-2 > 100 µM | SK-MEL-5 12.5 µM | SN12C 6.27 µM | SNB-19 > 100 µM | U-251 > 61.9 µM | UO-31 > 37.5 µM

CN(C)C(=S)SCc1ccccc1
inactive: HCT-116 83.9 µM | HL-60 99.1 µM | HOP-62 > 100 µM | IGROV-1 > 100 µM | KM12 > 100 µM | LOX IMVI > 100 µM | M14 > 100 µM | MCF7 > 100 µM | OVCAR-8 > 100 µM | SF-268 > 100 µM | SK-MEL-28 > 100 µM | SK-MEL-2 83.4 µM | SK-MEL-5 > 100 µM | SN12C > 100 µM | SNB-19 > 100 µM | TK-10 > 100 µM | U-251 > 100 µM | UO-31 53.7 µM

Cc1ccccc1NC(=O)CC(=O)N1N=C(N2c3ccccc3Sc3ccccc32)CC1c1ccccc1 (centres undefined)
inactive: HCC 2998 > 100 µM | HCT-116 > 100 µM | HOP-62 > 100 µM | IGROV-1 > 100 µM | KM12 > 100 µM | LOX IMVI > 100 µM | M14 > 100 µM | OVCAR-8 > 100 µM | SF-268 > 100 µM | SK-MEL-28 > 100 µM | SK-MEL-5 > 100 µM | SN12C > 100 µM | SNB-19 > 100 µM | TK-10 > 100 µM | U-251 > 100 µM | UO-31 > 100 µM

O=C(O)C1Cc2c([nH]c3ccccc23)C=N1 (centres undefined)
inactive: HCC 2998 > 100 µM | HCT-116 > 100 µM | HL-60 > 100 µM | HOP-62 > 100 µM | IGROV-1 > 100 µM | K562 > 100 µM | LOX IMVI > 100 µM | MCF7 > 100 µM | OVCAR-8 > 100 µM | SF-268 > 100 µM | SK-MEL-28 > 100 µM | SK-MEL-2 > 100 µM | SK-MEL-5 > 100 µM | SN12C > 100 µM | SNB-19 > 100 µM | U-251 > 100 µM | UO-31 > 100 µM

Cc1cccc2c1Sc1ccccc1C2NC(=O)CN(C)C (centres undefined)
inactive: HCC 2998 47.6 µM | HCT-116 > 100 µM | HL-60 74.5 µM | HOP-62 > 100 µM | IGROV-1 > 100 µM | K562 81.1 µM | LOX IMVI > 100 µM | M14 41.4 µM | OVCAR-8 > 100 µM | SF-268 > 100 µM | SK-MEL-28 52.4 µM | SK-MEL-5 36.1 µM | SN12C 81.5 µM | SNB-19 > 100 µM | TK-10 > 100 µM | U-251 > 100 µM | UO-31 33.6 µM

Nc1nc(=S)[nH]c2nc3c(c(-c4ccccc4)c12)CCCC3
inactive: HCT-116 > 100 µM | HL-60 > 100 µM | HOP-62 > 100 µM | IGROV-1 > 100 µM | K562 > 100 µM | KM12 > 100 µM | LOX IMVI > 100 µM | M14 > 100 µM | MCF7 > 100 µM | OVCAR-8 > 100 µM | SF-268 > 100 µM | SK-MEL-5 > 100 µM | SN12C 67.8 µM | SNB-19 > 100 µM | TK-10 > 100 µM | U-251 > 100 µM | UO-31 > 100 µM

COC1CCC(OS(C)(=O)=O)CO1 (centres undefined)
inactive: HCT-116 > 100 µM | HL-60 35 µM | HOP-62 > 100 µM | IGROV-1 > 100 µM | K562 69 µM | KM12 > 100 µM | M14 > 100 µM | SF-268 86.7 µM | SK-MEL-28 > 100 µM | SK-MEL-2 > 100 µM | SNB-19 > 100 µM | U-251 > 100 µM | UO-31 > 100 µM

CCSc1ncnc2c(C3OC(CO)C(O)C3O)nsc12 (centres undefined)
inactive: HCC 2998 99.1 µM | HCT-116 > 100 µM | HL-60 > 100 µM | HOP-62 > 100 µM | IGROV-1 > 100 µM | K562 > 100 µM | LOX IMVI > 100 µM | M14 > 100 µM | MCF7 > 100 µM | OVCAR-8 > 100 µM | SF-268 > 100 µM | SK-MEL-28 > 100 µM | SK-MEL-2 > 100 µM | SK-MEL-5 > 100 µM | SN12C > 100 µM | U-251 > 100 µM

O=Cc1c(Br)[nH]c2ccccc12
inactive: HCC 2998 > 100 µM | HCT-116 84.7 µM | HL-60 9.55 µM | HOP-62 > 100 µM | IGROV-1 > 81.1 µM | K562 > 100 µM | KM12 > 100 µM | LOX IMVI 71.6 µM | MCF7 47 µM | OVCAR-8 > 100 µM | SF-268 > 100 µM | SK-MEL-28 > 100 µM | SK-MEL-2 75.3 µM | SK-MEL-5 45.4 µM | SN12C > 100 µM | U-251 89.3 µM | UO-31 39.9 µM

NC(=O)OCC1=C(COC(N)=O)C(=O)c2c(O)ccc(O)c2C1=O
inactive: HCC 2998 > 100 µM | HCT-116 > 100 µM | HL-60 45.2 µM | HOP-62 > 100 µM | IGROV-1 > 100 µM | K562 61.9 µM | KM12 > 100 µM | M14 > 100 µM | OVCAR-8 > 100 µM | SF-268 > 100 µM | SK-MEL-28 > 100 µM | SK-MEL-2 78.7 µM | SK-MEL-5 48 µM | SN12C > 100 µM | TK-10 > 100 µM | U-251 > 100 µM | UO-31 > 100 µM

COc1ccccc1-c1cc(O)c2c(C)cc(C)nc2n1
inactive: HCC 2998 > 100 µM | HOP-62 > 100 µM | IGROV-1 30.5 µM | K562 67.9 µM | KM12 29.1 µM | LOX IMVI 75.2 µM | M14 79.8 µM | MCF7 46.8 µM | OVCAR-8 90.2 µM | SF-268 84.3 µM | SK-MEL-28 > 100 µM | SK-MEL-2 45.9 µM | SN12C 70.1 µM | SNB-19 73.3 µM | TK-10 > 100 µM | UO-31 47.1 µM

COC(=O)C(C)(C)NC(=O)C(Cc1ccccc1)NC(=O)C(C)(C)NC(=O)OCc1ccccc1 (centres undefined) (Cbz-[Aib]-[ξF]-[Aib]-OMe)
inactive: HCC 2998 > 100 µM | HCT-116 > 100 µM | HL-60 > 100 µM | HOP-62 > 100 µM | IGROV-1 > 100 µM | K562 > 100 µM | LOX IMVI > 100 µM | M14 > 100 µM | MCF7 > 100 µM | OVCAR-8 > 100 µM | SF-268 > 100 µM | SK-MEL-28 > 100 µM | SK-MEL-5 > 100 µM | SNB-19 > 100 µM | TK-10 > 100 µM | U-251 > 100 µM | UO-31 > 100 µM
